Results on 15 molecules are retold here after the Deep4Chem optical property database.

This data set is described as follows: solvent given as SMILES.

Take `CCCCC(CC)Cn1c2cc(C#N)c(-c3ccc(N(c4ccccc4)c4ccccc4)cc3)cc2c2cc(-c3ccc(N(c4ccccc4)c4ccccc4)cc3)c(C#N)cc21` (stereo unspecified): the emission maximum is, setting by setting: (in C1CCCCC1) 450 nm; (in C1CCOC1) 494 nm; (in CC#N) 542 nm; (in CCCCOCCCC) 464 nm; (in CCN(CC)CC) 464.65 nm; (in CCOC(C)=O) 494 nm. The emission maximum by setting is: (in CCOCC) 472 nm; (in CN(C)C=O) 542 nm; (in Cc1ccccc1) 473 nm; (in ClC=C(Cl)Cl) 478 nm; (in ClCCl) 513 nm.

Consider `Cc1cc2c(o1)=CC1=Cc3cc4oc(C)cc4n3[B-](F)(F)[N+]=21`, for which the emission maximum (in ClC(Cl)Cl) came out at 583 nm.

`Oc1ccccc1/C=N/N=C/c1ccccc1O`: the emission maximum (in CC#N) amounted to 588.24 nm; the emission maximum (in CC(C)CCCC(C)CCCC(C)CCCCC(C)CCCC(C)CCCC(C)C) was 583.09 nm; the emission maximum (in CCCCCC) stood at 578.03 nm; the emission maximum (in CCCCCCCCC) is recorded as 581.4 nm; the emission maximum (in CCCCCCCCCCCCCCCC) is 581.4 nm; the emission maximum (in CCCCl) is on record as 584.8 nm. For the same molecule, the emission maximum (in CCN(CC)CC) is 576.37 nm; the emission maximum (in CCO) was 579.71 nm; the emission maximum (in CCOCC) was determined as 588.24 nm; the emission maximum (in CO) turned out to be 573.07 nm; the emission maximum (in OC(C(F)(F)F)C(F)(F)F) is on record as 571.43 nm; the emission maximum (in OCC(F)(F)F) is reported as 573.07 nm. Further, the emission maximum (in OCCO) amounted to 584.8 nm.

The molecule `c1ccc(/C(=C(\c2ccccc2)c2ccccc2-c2ccc(-c3ccccc3)cc2)c2ccccc2-c2ccc(-c3ccccc3)cc2)cc1` displayed an emission maximum (in C1CCOC1) of 492 nm.

In the case of `CCCCCCN(CCCCCC)c1ccc(C#Cc2ccc(/C=C/c3ccc(-c4ccc(/C=C/c5ccc(C#Cc6ccc(N(CCCCCC)CCCCCC)cc6)cc5)cc4)cc3)cc2)cc1`, the emission maximum (in Cc1ccccc1) amounted to 452 nm.

Where the note is “in ClC(Cl)Cl”, `CCCCCCCCn1c(=O)c2cc3cc4cc5c(=O)n(CCCCCCCC)c(=O)c5cc4c(C#Cc4ccc(N(c5ccccc5)c5ccccc5)cc4)c3cc2c1=O` had an emission maximum of 611 nm.

Under “in CC#N”, `Cc1ccc(C)c2nc3c(=O)[nH]c(=O)[nH]c3nc12` showed an emission maximum of 491 nm.

Take `CCCC1=Cc2nc1ccc1[nH]c(cc1CCC)c1nc(c(OC(=O)CCCC(=O)OC(C)(C)C)cc3[nH]c2cc3CCC)C(CCC)=C1`: the emission maximum (in Cc1ccccc1) amounted to 651 nm.

`Nc1ccc2ccc(O)cc2c1` had an emission maximum (in O) of 398 nm.

`CC(C)(C)c1cc2cc(N(c3ccccc3)c3ccccc3)c3cc(C(C)(C)C)cc4cc(N(c5ccccc5)c5ccccc5)c(c1)c2c43`: the emission maximum (in C1CCOC1) came out at 466.72 nm, the emission maximum (in CC#N) was determined as 497.22 nm and the emission maximum (in CCCCCC) turned out to be 426 nm.

Take `CC(=O)Nc1ccc2c3c(cccc13)C(=O)c1ccccc1-2`: the emission maximum reads like this: (in CC#N) 539.96 nm; (in CC(C)=O) 526.04 nm; (in CC(C)O) 567.86 nm; (in CCCCOCCCC) 507.1 nm; (in CCOC(C)=O) 520.02 nm; (in CCOCC) 518.13 nm. Moreover, the emission maximum is 573.07 nm (in CO); 516 nm (in Cc1ccccc1); 520.02 nm (in Clc1ccccc1); 527.98 nm (in N#Cc1ccccc1); 526.87 nm (in O=C1CCCCC1).

Molecule `CC(C)[Si](C#Cc1c2nc3ccccc3nc2c(C#C[Si](C(C)C)(C(C)C)C(C)C)c2nc3ccccc3nc12)(C(C)C)C(C)C` yielded an emission maximum (in CCCCCC) of 694 nm.

As to `Cc1nc2cccc(-c3nc4ccccc4[nH]3)c2c(=O)[nH]1`, the emission maximum (in CN(C)C=O) was found to be 441 nm.

Consider `COC(=O)C(NC(=O)OC(C)(C)C)c1ccc2oc(-c3ccc(OC(=O)c4ccccc4)cc3O)nc2c1` (stereo unspecified), for which the emission maximum is reported as 480 nm (in CC1CCCCC1), 471 nm (in CC#N) and 405 nm (in CO).

In the case of `CCC1(CC)c2cc(/C=C/c3ccc(N(c4ccccc4)c4ccccc4)cc3)ccc2-c2ccc(/C=C/c3ccc(N(c4ccccc4)c4ccccc4)cc3)cc21`, where the note is “in Cc1ccccc1”, the emission maximum was determined as 451 nm.
